pEC50: −log10 of the molar value.
Experiments:
HCT-8 = assay: Cytotoxicity against human HCT-8 cells assessed as reduction in cell number upto 50 uM incubated for 48 hrs by; assay type: toxicity, cell-based; conditions: hct-8, 48 h
Cryptosporidium parvum = assay: Antiparasitic activity against Cryptosporidium parvum infected in human HCT-8 cells assessed as parasitic growth inhibition incubated for 48 hrs by fluorescence microscopic analysis; assay type: functional, organism-based; conditions: HCT-8, 48 h

COc1cccc(CC(=O)N2CCN(c3ccc4nncn4n3)CC2)c1
Activity (HCT-8): Non-Toxic

O=C(Cc1ccc(F)c(F)c1)N1CCN(c2ccc3nncn3n2)CC1
Activity (HCT-8): Non-Toxic
pEC50 (Cryptosporidium parvum): 6.12

O=C(Cc1cccc(C(F)(F)F)c1F)N1CCN(c2ccc3nncn3n2)CC1
Activity (HCT-8): Non-Toxic
pEC50 (Cryptosporidium parvum): 4.21

O=C(Cc1cccc(-c2ccccc2)c1)N1CCN(c2ccc3nncn3n2)CC1
Activity (HCT-8): Non-Toxic
pEC50 (Cryptosporidium parvum): 4.60

O=C(Cc1ccc(Cl)cc1Cl)N1CCN(c2ccc3nncn3n2)CC1
Activity (HCT-8): Non-Toxic
pEC50 (Cryptosporidium parvum): < 4.60

O=C(Cc1cccc(O)c1)N1CCN(c2ccc3nncn3n2)CC1
Activity (HCT-8): Non-Toxic
pEC50 (Cryptosporidium parvum): 4.47

O=C(Cc1ccc(-c2ccccc2)cc1)N1CCN(c2ccc3nncn3n2)CC1
Activity (HCT-8): Non-Toxic
pEC50 (Cryptosporidium parvum): 4.25

O=C(Cc1ccc(Br)c(F)c1)N1CCN(c2ccc3nncn3n2)CC1
Activity (HCT-8): Non-Toxic
pEC50 (Cryptosporidium parvum): 6.11

O=C(Cc1ccc(F)c(Br)c1)N1CCN(c2ccc3nncn3n2)CC1
Activity (HCT-8): Non-Toxic
pEC50 (Cryptosporidium parvum): 6.64

O=C(Cc1ccc(C(F)(F)F)c(Cl)c1)N1CCN(c2ccc3nncn3n2)CC1
Activity (HCT-8): Non-Toxic
pEC50 (Cryptosporidium parvum): 6.47

O=C(Cc1cccc([N+](=O)[O-])c1)N1CCN(c2ccc3nncn3n2)CC1
Activity (HCT-8): Non-Toxic
pEC50 (Cryptosporidium parvum): 4.74

O=C(Cc1cc(F)c(F)c(F)c1)N1CCN(c2ccc3nncn3n2)CC1
Activity (HCT-8): Non-Toxic
pEC50 (Cryptosporidium parvum): 6.40

O=C(Cc1cc(Cl)cc(C(F)(F)F)c1)N1CCN(c2ccc3nncn3n2)CC1
Activity (HCT-8): Non-Toxic
pEC50 (Cryptosporidium parvum): 6.39

Cc1ccccc1CC(=O)N1CCN(c2ccc3nncn3n2)CC1
Activity (HCT-8): Non-Toxic
pEC50 (Cryptosporidium parvum): < 4.30

N#Cc1cccc(CC(=O)N2CCN(c3ccc4nncn4n3)CC2)c1
Activity (HCT-8): Non-Toxic
pEC50 (Cryptosporidium parvum): 4.42

O=C(Cc1ccc([N+](=O)[O-])c(F)c1)N1CCN(c2ccc3nncn3n2)CC1
Activity (HCT-8): Non-Toxic
pEC50 (Cryptosporidium parvum): 4.60

O=C(Cc1ccc(C(F)(F)F)cc1)N1CCN(c2ccc3nncn3n2)CC1
Activity (HCT-8): Non-Toxic
pEC50 (Cryptosporidium parvum): 5.26

COc1ccc(CC(=O)N2CCN(c3ccc4nncn4n3)CC2)cc1
Activity (HCT-8): Non-Toxic

O=C(Cc1ccc(Cl)cc1)N1CCN(c2ccc3nncn3n2)CC1
Activity (HCT-8): Non-Toxic

O=C(Cc1ccc(C(F)(F)F)c(F)c1)N1CCN(c2ccc3nncn3n2)CC1
Activity (HCT-8): Non-Toxic
pEC50 (Cryptosporidium parvum): 5.70

O=C(Cc1cccc(C(F)(F)F)c1)N1CCN(c2ccc3nncn3n2)CC1
Activity (HCT-8): Non-Toxic
pEC50 (Cryptosporidium parvum): 5.96

COc1ccc(CC(=O)N2CCN(c3ccc4nncn4n3)CC2)cc1F
Activity (HCT-8): Non-Toxic
pEC50 (Cryptosporidium parvum): 4.92

O=C(Cc1ccc(F)c(OC(F)(F)F)c1)N1CCN(c2ccc3nncn3n2)CC1
Activity (HCT-8): Non-Toxic
pEC50 (Cryptosporidium parvum): 6.17

Cc1ccc(CC(=O)N2CCN(c3ccc4nncn4n3)CC2)cc1F
Activity (HCT-8): Non-Toxic
pEC50 (Cryptosporidium parvum): 5.28

O=C(Cc1cccc(Cl)c1)N1CCN(c2ccc3nncn3n2)CC1
Activity (HCT-8): Non-Toxic

O=C(Cc1ccc(O)c(F)c1)N1CCN(c2ccc3nncn3n2)CC1
Activity (HCT-8): Non-Toxic
pEC50 (Cryptosporidium parvum): 4.28

O=C(Cc1ccc([N+](=O)[O-])cc1)N1CCN(c2ccc3nncn3n2)CC1
Activity (HCT-8): Non-Toxic

O=C(Cc1cc(F)cc(C(F)(F)F)c1)N1CCN(c2ccc3nncn3n2)CC1
Activity (HCT-8): Non-Toxic
pEC50 (Cryptosporidium parvum): 5.77

N#Cc1cc(CC(=O)N2CCN(c3ccc4nncn4n3)CC2)ccc1F
Activity (HCT-8): Non-Toxic
pEC50 (Cryptosporidium parvum): 5.68

C#Cc1ccc(CC(=O)N2CCN(c3ccc4nncn4n3)CC2)cc1
Activity (HCT-8): Non-Toxic
pEC50 (Cryptosporidium parvum): 6.06

O=C(Cc1cccc(Br)c1)N1CCN(c2ccc3nncn3n2)CC1
Activity (HCT-8): Non-Toxic
pEC50 (Cryptosporidium parvum): 5.66

O=C(Cc1ccc(Cl)c(C(F)(F)F)c1)N1CCN(c2ccc3nncn3n2)CC1
Activity (HCT-8): Non-Toxic
pEC50 (Cryptosporidium parvum): 6.57

O=C(Cc1ccc(Cl)c(Br)c1)N1CCN(c2ccc3nncn3n2)CC1
Activity (HCT-8): Non-Toxic
pEC50 (Cryptosporidium parvum): 6.92

O=C(Cc1ccccc1Br)N1CCN(c2ccc3nncn3n2)CC1
Activity (HCT-8): Non-Toxic
pEC50 (Cryptosporidium parvum): < 4.30

O=C(Cc1cccc(F)c1)N1CCN(c2ccc3nncn3n2)CC1
Activity (HCT-8): Non-Toxic
pEC50 (Cryptosporidium parvum): 4.85

O=C(Cc1ccc(F)c(Cl)c1)N1CCN(c2ccc3nncn3n2)CC1
Activity (HCT-8): Non-Toxic
pEC50 (Cryptosporidium parvum): 6.62

O=C(Cc1ccc(O)cc1)N1CCN(c2ccc3nncn3n2)CC1
Activity (HCT-8): Non-Toxic
pEC50 (Cryptosporidium parvum): < 4.30

O=C(Cc1cc(Cl)ccc1Cl)N1CCN(c2ccc3nncn3n2)CC1
Activity (HCT-8): Non-Toxic
pEC50 (Cryptosporidium parvum): 4.24

O=C(Cc1ccc(F)c(CO)c1)N1CCN(c2ccc3nncn3n2)CC1
Activity (HCT-8): Non-Toxic
pEC50 (Cryptosporidium parvum): 4.77

O=C(Cc1ccc(F)c(O)c1)N1CCN(c2ccc3nncn3n2)CC1
Activity (HCT-8): Non-Toxic
pEC50 (Cryptosporidium parvum): < 4.30

O=C(Cc1cc(C(F)(F)F)ccc1F)N1CCN(c2ccc3nncn3n2)CC1
Activity (HCT-8): Non-Toxic
pEC50 (Cryptosporidium parvum): 4.82

O=C(Cc1ccc(S(F)(F)(F)(F)F)cc1)N1CCN(c2ccc3nncn3n2)CC1
Activity (HCT-8): Non-Toxic
pEC50 (Cryptosporidium parvum): 4.92

Cc1cc(CC(=O)N2CCN(c3ccc4nncn4n3)CC2)ccc1F
Activity (HCT-8): Non-Toxic
pEC50 (Cryptosporidium parvum): 6.43

Cc1cc(CC(=O)N2CCN(c3ccc4nncn4n3)CC2)ccc1Cl
Activity (HCT-8): Non-Toxic
pEC50 (Cryptosporidium parvum): 6.57

O=C(Cc1ccc(CO)cc1)N1CCN(c2ccc3nncn3n2)CC1
Activity (HCT-8): Non-Toxic
pEC50 (Cryptosporidium parvum): < 4.60

Cc1ccc(CC(=O)N2CCN(c3ccc4nncn4n3)CC2)cc1Cl
Activity (HCT-8): Non-Toxic
pEC50 (Cryptosporidium parvum): 5.96

O=C(Cc1cc(Cl)cc(Cl)c1)N1CCN(c2ccc3nncn3n2)CC1
Activity (HCT-8): Non-Toxic
pEC50 (Cryptosporidium parvum): 5.92

N#Cc1ccc(CC(=O)N2CCN(c3ccc4nncn4n3)CC2)cc1
Activity (HCT-8): Non-Toxic

Cc1ccc(CC(=O)N2CCN(c3ccc4nncn4n3)CC2)cc1
Activity (HCT-8): Non-Toxic
pEC50 (Cryptosporidium parvum): 5.00

O=C(Cc1cccc(S(F)(F)(F)(F)F)c1)N1CCN(c2ccc3nncn3n2)CC1
Activity (HCT-8): Non-Toxic
pEC50 (Cryptosporidium parvum): 5.96

Cc1cccc(CC(=O)N2CCN(c3ccc4nncn4n3)CC2)c1
Activity (HCT-8): Non-Toxic
pEC50 (Cryptosporidium parvum): 4.92

Cc1cc(F)ccc1CC(=O)N1CCN(c2ccc3nncn3n2)CC1
Activity (HCT-8): Non-Toxic
pEC50 (Cryptosporidium parvum): 4.66

O=C(Cc1cc(F)cc(F)c1)N1CCN(c2ccc3nncn3n2)CC1
Activity (HCT-8): Non-Toxic
pEC50 (Cryptosporidium parvum): 5.24

O=C(Cc1c(Cl)cccc1Cl)N1CCN(c2ccc3nncn3n2)CC1
Activity (HCT-8): Non-Toxic
pEC50 (Cryptosporidium parvum): < 4.60

N#Cc1ccc(CC(=O)N2CCN(c3ccc4nncn4n3)CC2)cc1F
Activity (HCT-8): Non-Toxic
pEC50 (Cryptosporidium parvum): 5.80

O=C(Cc1ccc(Br)c(Cl)c1)N1CCN(c2ccc3nncn3n2)CC1
Activity (HCT-8): Non-Toxic
pEC50 (Cryptosporidium parvum): 6.60

O=C(Cc1ccc(Cl)c(F)c1)N1CCN(c2ccc3nncn3n2)CC1
Activity (HCT-8): Non-Toxic
pEC50 (Cryptosporidium parvum): 6.39

O=C(Cc1ccccc1F)N1CCN(c2ccc3nncn3n2)CC1
Activity (HCT-8): Non-Toxic
pEC50 (Cryptosporidium parvum): < 4.22

O=C(Cc1cccc(Cl)c1Cl)N1CCN(c2ccc3nncn3n2)CC1
Activity (HCT-8): Non-Toxic
pEC50 (Cryptosporidium parvum): < 4.60

O=C(Cc1ccc(F)cc1)N1CCN(c2ccc3nncn3n2)CC1
Activity (HCT-8): Non-Toxic

From ChEMBL document CHEMBL5338813 (J Med Chem, 2023)
